# Experimental data from publication PMC12186298, “Phase 1 clinical trial of eneboparatide, a novel PTH receptor 1 agonist” (Endocrine Connections, 2025).
# Where two headings read alike, the source gives them in different places. Peptide text beside a SMILES is read from it.
# Columns and labels:
# healthy subjects = assay: Safety and tolerability, adverse events, Part A SAD; type: in vivo, human
# Description: Seven sequential cohorts were included in Part A. The first cohort was single-blind and included four subjects, of which three subjects were randomized to receive 5 μg eneboparatide and one subject was randomized to receive placebo. […] Subjects in Part A were admitted to the phase 1 study centre on day 1 and received the study drug at the clinical site on day 1 as a single, subcutaneous abdominal injection in the morning. They were discharged on day 4 and were asked to return for a follow-up (FU) visit on day 5–8.
# [1] = Plasma pharmacokinetics, multiple ascending dose (Part B); type: in vivo, human; conditions: for AUC(0–∞) / Cmax / Tmax / AUC(0-inf): Part B MAD; for Cmax: LC-MS/MS, mean ± SD
# Description: Plasma samples were collected pre-dose and at scheduled time points up to 6 h post-dose on day 1 (Parts A and B) and day 14 (Part B). The analysis of eneboparatide in plasma samples was performed at QPS (The Netherlands) using a hybrid immunoaffinity liquid chromatography–mass spectrometry/mass spectrometry (LC-MS/MS) method, with a validated lower limit of quantification (LLOQ) of 50 pg/mL.
smiles,measurement,setting,value
CC[C@H](C)[C@H](NC(=O)[C@H](CCC(=O)O)NC(=O)[C@H](C)NC(=O)[C@@H](NC(=O)[C@H](Cc1c[nH]cn1)NC(=O)[C@@H](NC(=O)[C@H](CCC(=O)O)NC(=O)[C@H](C)NC(=O)[C@@H](NC(=O)[C@H](CC(C)C)NC(=O)[C@H](CCCCN)NC(=O)[C@H](Cc1c[nH]cn1)NC(=O)[C@H](CC(C)C)NC(=O)[C@H](Cc1ccccc1)NC(=O)[C@H](C)NC(=O)[C@H](CCCNC(=N)N)NC(=O)[C@H](CCCNC(=N)N)NC(=O)[C@H](CCCNC(=N)N)NC(=O)[C@H](C)NC(=O)[C@H](CC(=O)O)NC(=O)[C@H](CCC(N)=O)NC(=O)[C@@H](NC(=O)[C@H](Cc1c[nH]c2ccccc12)NC(=O)[C@H](CCCCN)NC(=O)[C@H](C)NC(=O)[C@H](CCCNC(=N)N)NC(=O)[C@H](CCC(N)=O)NC(=O)[C@H](Cc1c[nH]cn1)NC(=O)[C@H](CCSC)NC(=O)[C@H](CC(C)C)NC(=O)[C@H](CCC(N)=O)NC(=O)[C@@H](NC(=O)[C@H](CCC(=O)O)NC(=O)[C@H](C)NC(=O)[C@@H](NC(=O)[C@H](C)N)C(C)C)[C@@H](C)CC)[C@@H](C)CC)[C@@H](C)CC)[C@@H](C)CC)[C@@H](C)O)C(=O)O [eneboparatide] (H-AVAEIQLMHQRAKWIQDARRRAFLHKLIAEIHTAEI-OH; N-terminus and C-terminus assumed),"vomiting, subjects",healthy subjects,none
same,"Catheter site haematoma, subjects with TEAE","healthy subjects; single sc 5 μg, n = 3",0
same,"Decreased appetite, subjects with TEAE","healthy subjects; single sc 5 μg, n = 3",0
same,"Fatigue, subjects with TEAE","healthy subjects; single sc 5 μg, n = 3",0
same,"Headache, subjects with TEAE","healthy subjects; single sc 5 μg, n = 3",1
same,"Injection site erythema, subjects with TEAE","healthy subjects; single sc 5 μg, n = 3",0
same,"Injection site pain, subjects with TEAE","healthy subjects; single sc 5 μg, n = 3",0
same,"Nausea, subjects with TEAE","healthy subjects; single sc 5 μg, n = 3",0
same,"Somnolence, subjects with TEAE","healthy subjects; single sc 5 μg, n = 3",0
same,"Catheter site haematoma, subjects with TEAE","healthy subjects; single sc 10 μg, n = 6",1
same,"Decreased appetite, subjects with TEAE","healthy subjects; single sc 10 μg, n = 6",0
same,"Fatigue, subjects with TEAE","healthy subjects; single sc 10 μg, n = 6",1
same,"Headache, subjects with TEAE","healthy subjects; single sc 10 μg, n = 6",1
same,"Injection site erythema, subjects with TEAE","healthy subjects; single sc 10 μg, n = 6",0
same,"Injection site pain, subjects with TEAE","healthy subjects; single sc 10 μg, n = 6",0
same,"Nausea, subjects with TEAE","healthy subjects; single sc 10 μg, n = 6",0
same,"Somnolence, subjects with TEAE","healthy subjects; single sc 10 μg, n = 6",0
same,"Catheter site haematoma, subjects with TEAE","healthy subjects; single sc 20 μg, n = 6",0
same,"Decreased appetite, subjects with TEAE","healthy subjects; single sc 20 μg, n = 6",1
same,"Fatigue, subjects with TEAE","healthy subjects; single sc 20 μg, n = 6",1
same,"Headache, subjects with TEAE","healthy subjects; single sc 20 μg, n = 6",1
same,"Injection site erythema, subjects with TEAE","healthy subjects; single sc 20 μg, n = 6",0
same,"Injection site pain, subjects with TEAE","healthy subjects; single sc 20 μg, n = 6",1
same,"Nausea, subjects with TEAE","healthy subjects; single sc 20 μg, n = 6",0
same,"Somnolence, subjects with TEAE","healthy subjects; single sc 20 μg, n = 6",0
same,"Catheter site haematoma, subjects with TEAE","healthy subjects; single sc 40 μg, n = 6",0
same,"Decreased appetite, subjects with TEAE","healthy subjects; single sc 40 μg, n = 6",0
same,"Fatigue, subjects with TEAE","healthy subjects; single sc 40 μg, n = 6",0
same,"Headache, subjects with TEAE","healthy subjects; single sc 40 μg, n = 6",0
same,"Injection site erythema, subjects with TEAE","healthy subjects; single sc 40 μg, n = 6",0
same,"Injection site pain, subjects with TEAE","healthy subjects; single sc 40 μg, n = 6",0
same,"Nausea, subjects with TEAE","healthy subjects; single sc 40 μg, n = 6",0
same,"Somnolence, subjects with TEAE","healthy subjects; single sc 40 μg, n = 6",0
same,"Catheter site haematoma, subjects with TEAE","healthy subjects; single sc 60 μg, n = 6",0
same,"Decreased appetite, subjects with TEAE","healthy subjects; single sc 60 μg, n = 6",0
same,"Fatigue, subjects with TEAE","healthy subjects; single sc 60 μg, n = 6",1
same,"Headache, subjects with TEAE","healthy subjects; single sc 60 μg, n = 6",0
same,"Injection site erythema, subjects with TEAE","healthy subjects; single sc 60 μg, n = 6",0
same,"Injection site pain, subjects with TEAE","healthy subjects; single sc 60 μg, n = 6",0
same,"Nausea, subjects with TEAE","healthy subjects; single sc 60 μg, n = 6",1
same,"Somnolence, subjects with TEAE","healthy subjects; single sc 60 μg, n = 6",0
same,"Catheter site haematoma, subjects with TEAE","healthy subjects; single sc 90 μg, n = 6",1
same,"Decreased appetite, subjects with TEAE","healthy subjects; single sc 90 μg, n = 6",2
same,"Fatigue, subjects with TEAE","healthy subjects; single sc 90 μg, n = 6",0
same,"Headache, subjects with TEAE","healthy subjects; single sc 90 μg, n = 6",2
same,"Injection site erythema, subjects with TEAE","healthy subjects; single sc 90 μg, n = 6",2
same,"Injection site pain, subjects with TEAE","healthy subjects; single sc 90 μg, n = 6",2
same,"Nausea, subjects with TEAE","healthy subjects; single sc 90 μg, n = 6",3
same,"Somnolence, subjects with TEAE","healthy subjects; single sc 90 μg, n = 6",1
same,"Catheter site haematoma, subjects with TEAE","healthy subjects; single sc 120 μg, n = 6",1
same,"Decreased appetite, subjects with TEAE","healthy subjects; single sc 120 μg, n = 6",3
same,"Fatigue, subjects with TEAE","healthy subjects; single sc 120 μg, n = 6",0
same,"Headache, subjects with TEAE","healthy subjects; single sc 120 μg, n = 6",3
same,"Injection site erythema, subjects with TEAE","healthy subjects; single sc 120 μg, n = 6",0
same,"Injection site pain, subjects with TEAE","healthy subjects; single sc 120 μg, n = 6",0
same,"Nausea, subjects with TEAE","healthy subjects; single sc 120 μg, n = 6",4
same,"Somnolence, subjects with TEAE","healthy subjects; single sc 120 μg, n = 6",4
same,"Catheter site haematoma, subjects with TEAE","healthy subjects; total eneboparatide, n = 39",3 (7.7) n (%)
same,"Decreased appetite, subjects with TEAE","healthy subjects; total eneboparatide, n = 39",6 (15.4) n (%)
same,"Fatigue, subjects with TEAE","healthy subjects; total eneboparatide, n = 39",3 (7.7) n (%)
same,"Headache, subjects with TEAE","healthy subjects; total eneboparatide, n = 39",8 (20.5) n (%)
same,"Injection site erythema, subjects with TEAE","healthy subjects; total eneboparatide, n = 39",2 (5.1) n (%)
same,"Injection site pain, subjects with TEAE","healthy subjects; total eneboparatide, n = 39",3 (7.7) n (%)
same,"Nausea, subjects with TEAE","healthy subjects; total eneboparatide, n = 39",8 (20.5) n (%)
same,"Somnolence, subjects with TEAE","healthy subjects; total eneboparatide, n = 39",5 (12.8) n (%)
same,"nausea, subjects","healthy subjects; transient, at 60, 90 and 120 μg",eight
same,AUC(0–∞),"[1]; 10 μg/day sc, Day 1, n = 4, mean ± SD",3.26 ± 3.20 ng·h/mL
same,Cmax,"[1]; 10 μg/day sc, Day 1, n = 4, plasma",20.6 ± 3.43 ng/mL
same,Cmax,"[1]; 10 μg/day sc, Day 14, n = 4, plasma",18.4 ± 5.37 ng/mL
same,AUC(0–∞),"[1]; 20 μg/day sc, Day 1, n = 8, mean ± SD",7.69 ± 5.52 ng·h/mL
same,Cmax,"[1]; 20 μg/day sc, Day 1, n = 8, plasma",19.6 ± 5.68 ng/mL
same,AUC(0–∞),"[1]; 40 μg/day sc, Day 1, n = 8, mean ± SD",15.8 ± 11.5 ng·h/mL
same,Cmax,"[1]; 40 μg/day sc, Day 1, n = 8, plasma",23.8 ± 8.97 ng/mL
same,Tmax,"[1]; 40 μg/day sc, Day 14, n = 8, median",10.2 min
same,AUC(0–∞),"[1]; 60 μg/day sc, Day 1, n = 8, mean ± SD",43.3 ± 18.1 ng·h/mL
same,Cmax,"[1]; 60 μg/day sc, Day 1, n = 8, plasma",42.9 ± 30.3 ng/mL
same,Tmax,"[1]; 60 μg/day sc, Day 14, n = 7, median",19.8 min
same,AUC(0–∞),"[1]; 80 μg/day sc, Day 1, n = 8, mean ± SD",64.2 ± 56.1 ng·h/mL
same,Cmax,"[1]; 80 μg/day sc, Day 1, n = 8, plasma",124 ± 105 ng/mL
same,accumulation in plasma,"[1]; after 14 consecutive daily administrations, day 14 vs day 1",absence of accumulation
same,Tmax,"[1]; human, plasma, sc, 10 μg/day, 10 μg/day sc, Day 1, n = 4, median, read-out: Tmax",19.8 min
same,Tmax,"[1]; human, plasma, sc, 10 μg/day, 10 μg/day sc, Day 14, n = 4, median, read-out: Tmax",5.4 min
same,Tmax,"[1]; human, plasma, sc, 20 μg/day, 20 μg/day sc, Day 1, n = 8, median, read-out: Tmax",7.8 min
same,Tmax,"[1]; human, plasma, sc, 20 μg/day, 20 μg/day sc, Day 14, n = 7, median, read-out: Tmax",10.2 min
same,Tmax,"[1]; human, plasma, sc, 40 μg/day, 40 μg/day sc, Day 1, n = 8, median, read-out: Tmax",10.2 min
same,Tmax,"[1]; human, plasma, sc, 60 μg/day, 60 μg/day sc, Day 1, n = 8, median, read-out: Tmax",19.8 min
same,Tmax,"[1]; human, plasma, sc, 80 μg/day, 80 μg/day sc, Day 1, n = 8, median, read-out: Tmax",10.2 min
same,Tmax,"[1]; human, plasma, sc, 80 μg/day, 80 μg/day sc, Day 14, n = 8, median, read-out: Tmax",10.8 min
same,AUC(0-inf),"[1]; human, plasma, 10 μg/day sc, Day 14, n = 4, mean ± SD",2.02 ± 2.41 ng·h/mL
same,AUC(0-inf),"[1]; human, plasma, 20 μg/day sc, Day 14, n = 7, mean ± SD",4.63 ± 3.29 ng·h/mL
same,AUC(0-inf),"[1]; human, plasma, 40 μg/day sc, Day 14, n = 8, mean ± SD",12.5 ± 4.75 ng·h/mL
same,AUC(0-inf),"[1]; human, plasma, 60 μg/day sc, Day 14, n = 7, mean ± SD",58.8 ± 30.3 ng·h/mL
same,AUC(0-inf),"[1]; human, plasma, 80 μg/day sc, Day 14, n = 8, mean ± SD",51.9 ± 51.6 ng·h/mL
same,Cmax,"[1]; human, 20 μg/day sc, Day 14, n = 7, plasma, read-out: Cmax",18.3 ± 6.78 ng/mL
same,Cmax,"[1]; human, 40 μg/day sc, Day 14, n = 8, plasma, read-out: Cmax",23.6 ± 5.5 ng/mL
same,Cmax,"[1]; human, 60 μg/day sc, Day 14, n = 7, plasma, read-out: Cmax",44.9 ± 17.9 ng/mL
same,Cmax,"[1]; human, 80 μg/day sc, Day 14, n = 8, plasma, read-out: Cmax",63.5 ± 28.3 ng/mL
